ChEMBL document CHEMBL4732261, “Design and synthesis of novel (S)-Naproxen hydrazide-hydrazones as potent VEGFR-2 inhibitors and their evaluation in vitro/in vivo breast cancer models” (Bioorg Med Chem, 2021)
pIC50: −log10 of the molar value. The source made the active and inactive calls. No cut-off for these calls is given here.

What was measured:
MDA-MB-231 [1] = assay: Cytotoxicity against human MDA-MB-231 cells assessed as reduction in cell viability after 48 hrs by MTT assay; assay type: functional, cell-based; details: MDA-MB-231, 48 h
MCF7 = assay: Cytotoxicity against human MCF7 cells assessed as reduction in cell viability after 48 hrs by MTT assay; assay type: functional, cell-based; details: MCF7, 48 h
MDA-MB-231 [2] = assay: Cytotoxicity against human MDA-MB-231 cells assessed as reduction in cell viability at 25 to 400 uM after 48 hrs by MTT assay; assay type: functional, cell-based; details: dose 25-400 µM
HEK293 = assay: Cytotoxicity against HEK293 cells assessed as reduction in cell viability after 48 hrs by MTT assay; assay type: cell-based; details: Homo sapiens, HEK293, 48 h
[3] = Cytotoxicity against human OSE cells assessed as reduction in cell viability after 48 hrs by MTT assay; assay type: cell-based; details: HOSE
MDA-MB-231 [4] = assay: Down regulation of VEGFR2 in human MDA-MB-231 cells at IC50 concentration after 48 hrs by Western blot analysis; assay type: functional, cell-based
MDA-MB-231 [5] = assay: Induction of apoptosis in human MDA-MB-231 cells assessed as decrease in Bcl2 protein expression at IC50 concentration after 48 hrs by Western blot analysis; assay type: functional, cell-based
MDA-MB-231 [6] = assay: Induction of cell cycle arrest in human MDA-MB-231 cells assessed as increase in accumulation of cells at S phase at 12.5 to 50 uM after 24 hrs by propidium iodide staining base flow cytometric analysis relative to control; assay type: functional; details: dose 12.5-50 µM
MDA-MB-231 [7] = assay: Induction of cell cycle arrest in human MDA-MB-231 cells assessed as increase in accumulation of cells at M phase at 12.5 to 50 uM after 24 hrs by propidium iodide staining base flow cytometric analysis; assay type: functional, cell-based; details: dose 12.5-50 µM
MDA-MB-231 [8] = assay: Induction of cell cycle arrest in human MDA-MB-231 cells assessed as decrease in accumulation of cells at G0/G1 phase after 24 hrs by propidium iodide staining base flow cytometric analysis; assay type: functional, cell-based; details: dose 12.5-50 µM
MDA-MB-231 [9] = assay: Induction of cell cycle arrest in human MDA-MB-231 cells assessed as accumulation of cells at G0/G1 phase at 50 uM after 24 hrs by propidium iodide staining base flow cytometric analysis (reference value: 73.2%); assay type: functional
MDA-MB-231 [10] = assay: Induction of cell cycle arrest in human MDA-MB-231 cells assessed as accumulation of cells at G2M phase at 12.5 to 50 uM after 24 hrs by propidium iodide staining base flow cytometric analysis relative to control; assay type: functional; details: dose 12.5-50 µM
MDA-MB-231 [11] = assay: Induction of morphological changes in human MDA-MB-231 cells assessed as nuclear condensation at IC50 concentration after 48 hrs by DAPI staining based fluorescent microscopic analysis; assay type: functional, cell-based
MDA-MB-231 [12] = assay: Induction of morphological changes in human MDA-MB-231 cells assessed as DNA fragmentation at IC50 concentration after 48 hrs by DAPI staining based fluorescent microscopic analysis; assay type: functional, cell-based
[13] = Toxicity in Balb/C mouse assessed as mortality at 30 to 120 mg/kg after 24 hrs; assay type: organism-based; details: in vivo, dose 30-120 mg/kg
[14] = Toxicity in Balb/C mouse implanted with EAC cells assessed as mortality at 60 to 120 mg/kg after 14 days; assay type: organism-based; details: in vivo, 336 h, dose 60-120 mg/kg, time 14 day
Ehrlich = assay: Antitumour activity against mouse EAC cells implanted in Balb/C mouse assessed as reduction in tumour volume at 60 to 120 mg/kg after 14 days; assay type: functional, organism-based; details: dose 60-120 mg/kg, time 14.0 day

SMILES	pIC50 (MDA-MB-231 [1])	pIC50 (MCF7)	further results
COc1ccc2cc([C@H](C)C(=O)N/N=C/c3c(F)cccc3F)ccc2c1	3.88	4.04	–
COc1ccc2cc([C@H](C)C(=O)N/N=C/c3cc(C(F)(F)F)cc(C(F)(F)F)c3)ccc2c1	3.45	3.73	–
COc1ccc2cc([C@H](C)C(=O)N/N=C/c3ccc(C#N)cc3)ccc2c1	3.41	4.22	–
COc1ccc2cc([C@H](C)C(=O)N/N=C/c3ccccc3OC(F)(F)F)ccc2c1	4.65	4.22	Activity (MDA-MB-231 [2]): Active; pIC50 (HEK293): 3.79; pIC50 [3]: 4.31; Activity (MDA-MB-231 [4]): Active; Activity (MDA-MB-231 [5]): Active; Activity (MDA-MB-231 [6]): 12.3%; Activity (MDA-MB-231 [7]): Active; Activity (MDA-MB-231 [8]): Dose-dependent effect; Activity (MDA-MB-231 [9]): 18.2%; Activity (MDA-MB-231 [10]): 14.5%; Activity (MDA-MB-231 [11]): Active; Activity (MDA-MB-231 [12]): Active; Activity [13]: Non-Toxic; Activity [14]: Non-Toxic; Activity (Ehrlich): Active
COc1ccc2cc([C@H](C)C(=O)N/N=C/c3ccc(OC(F)(F)F)cc3)ccc2c1	4.10	< 3.40	–
COc1ccc2cc([C@H](C)C(=O)N/N=C/c3cc(Br)cs3)ccc2c1	3.74	< 3.40	–
COc1cccc2c1C(=O)c1c(O)c3c(c(O)c1C2=O)C[C@@](O)(C(=O)CO)C[C@@H]3O[C@H]1C[C@H](N)[C@H](O)[C@H](C)O1 [DOXORUBICIN]	7.22	–	Activity (MDA-MB-231 [4]): Active; Activity (MDA-MB-231 [5]): Active
COc1ccc2cc([C@H](C)C(=O)O)ccc2c1 [NAPROXEN]	< 3.40	< 3.40	Activity (MDA-MB-231 [11]): inactive; Activity (MDA-MB-231 [12]): inactive
CCc1ccc(/C=N/NC(=O)[C@@H](C)c2ccc3cc(OC)ccc3c2)o1	3.75	3.58	–
COc1ccc2cc([C@H](C)C(=O)N/N=C/c3cccn3C)ccc2c1	3.89	3.45	–
COc1ccc2cc([C@H](C)C(=O)N/N=C/c3cccc(C(F)(F)F)c3)ccc2c1	4.26	4.16	–
COc1ccc2cc([C@H](C)C(=O)N/N=C/c3ccc(C(F)(F)F)cc3)ccc2c1	4.17	3.83	–
COc1ccc2cc([C@H](C)C(=O)N/N=C/c3ccc([N+](=O)[O-])o3)ccc2c1	< 3.40	4.38	–
COc1ccc2cc([C@H](C)C(=O)N/N=C/c3cccc(OC(F)(F)F)c3)ccc2c1	3.80	< 3.40	–
